This is an account of results in patent US12024508B2 (priority 2018, dated 2024).

For data set [1], the system named is Shiga toxin (Stx-1 and/or Stx-2). It counts as cell-based, E. coli.
Another data set deals with VACV-ANCHOR. The data set is described as follows: microbe, parasite or virus in culture. It counts as cell-based, Vaccinia virus. The following applies: for Selectivity index: HeLa/VacV, CC50/CI50; for IC50: Orthopoxvirus vaccinia, HeLa, 48 h, read-out: CI50.
In another data set the test system is Myxomavirus T1-ANCHOR. The data set is described as follows: Antiviral activity, RK13 cells with Myxomavirus T1-ANCHOR. It counts as cell-based. Particulars: for IC50: RK-13, 144 h, RK13/MyxV T1, MOI 0.05, fixation at 6 days, read-out: CI50 (the source's name); for Selectivity index: RK13/MyxV T1, CC50/CI50.
The test system of a further data set is hCMV-ANCHOR. The experiment in a line: Antiviral activity, MRC5 cells with hCMV-ANCHOR. It counts as cell-based. Particulars: for Selectivity index: CC50/CI50; for IC50: Human betaherpesvirus 5, 144 h, MOI 1, fixation at 6 days, read-out: CI50 (the source's name).
For another data set, the system named is RSV. The experiment in a line: Antiviral activity, Hep2 cells with RSV. It counts as cell-based. Particulars: for Selectivity index: CC50/CI50; for IC50: human respiratory syncytial virus, HEp-2, MOI 0.2, fixation at 72 hours, read-out: CI50 (the source's name).
Data set [2] in a line: Toxicity (cell number) in HeLa cells. Particulars: human.
The nature of data set [3]: Toxicity (cell number) in MRC5 cells. The following applies: human.
The nature of data set [4]: Toxicity (cell number) in Hep2 cells. Particulars: human.
The nature of data set [5]: Toxicity (cell number) in RK13 cells. Particulars: rabbit.

Where only a bound is given, the exact number is not on record here.

By CC50 is commonly meant the concentration that lowers cell viability or growth by half. High values mean better tolerance by the cells, low ones harm at low concentration. With `Cc1nc(-c2ccc(C3N(C)c4ccc(F)cc4C(=O)N3c3ccccc3O)s2)cs1` (stereo not shown) [Compound 2], the IC50 in data set [1] is 20 nM; in the data set with VACV-ANCHOR, 3.61 nM; in the data set with Myxomavirus T1-ANCHOR, 14.2 nM; with hCMV-ANCHOR, less than 1 nM; with RSV, 20 nM. In addition, the Selectivity index in the data set with VACV-ANCHOR was 8,947; with hCMV-ANCHOR, 21,000; in the data set on RSV it was 1,880. For the same compound, the cytotoxic concentration (CC50) at 72 h came to 32300 nM in [2], 21000 nM in [3] and 37600 nM in [4].
`Cc1nc(-c2ccc(C3N(C)c4ccc(F)cc4C(=O)N3c3ccccc3S(N)(=O)=O)s2)cs1` (stereo not shown) [Compound 5] registered an IC50 in data set [1] of 35 nM.
For `Cc1nc(-c2ccc(C3N(C)c4ccc(F)cc4C(=O)N3c3ccc(O)cc3)s2)cs1` (stereo not shown) [Compound 6], the IC50 in data set [1] was determined as 483 nM; in the data set on VACV-ANCHOR, 628 nM; with Myxomavirus T1-ANCHOR, 5800 nM; in the data set with hCMV-ANCHOR it was 281 nM; with RSV, 2200 nM. The Selectivity index with VACV-ANCHOR is 32; in the data set with Myxomavirus T1-ANCHOR it was 2; in the data set with hCMV-ANCHOR, 59; in the data set on RSV, 12. Moreover, the CC50 at 72 h in data set [2] was 20400 nM; in data set [5] it was 12900 nM; in data set [3], 16700 nM; in data set [4] it was 25600 nM.
For `Cc1nc(-c2ccc(C3N(C)c4ccc(F)cc4C(=O)N3c3ccccc3N)s2)cs1` (stereo not shown) [Compound 1], the IC50 in data set [1] is 14.2 nM; in the data set with VACV-ANCHOR, 1.05 nM; in the data set on Myxomavirus T1-ANCHOR, 1.44 nM; in the data set on hCMV-ANCHOR, less than 1 nM. Besides, the Selectivity index is 47,619 in the data set with VACV-ANCHOR, 5,181 in the data set with Myxomavirus T1-ANCHOR and 21,500 with hCMV-ANCHOR. Further, the CC50 at 72 h in [2] was more than 50000 nM; in data set [5], 7460 nM; in [3], 21500 nM; in [4] it was more than 50000 nM.
Consider `Cc1nc(-c2ccc(C3N(C)c4ccc(F)cc4C(=O)N3c3cccc(O)c3)s2)cs1` (stereo not shown) [Compound 3], for which the IC50 in data set [1] was 55 nM.
Consider `Cc1nc(-c2ccc(C3N(C)c4ccccc4C(=O)N3c3ccccc3N)s2)cs1` (stereo not shown) [Compound 4], for which, in data set [1], the IC50 is 78.6 nM.
In turn, `Cc1nc(-c2ccc(C3N(C)c4ccc(F)cc4C(=O)N3c3cccc(O)c3O)s2)cs1` (stereo not shown) [Compound 7] came in with an IC50 in [1] of 41 nM.
With `Cc1nc(-c2ccc(C3N(C)c4ccc(F)cc4C(=O)N3c3ccccc3)s2)cs1` (stereo not shown) [Retro-2.1], the IC50 in data set [1] came out at 100 nM; with VACV-ANCHOR, 37.8 nM; in the data set with Myxomavirus T1-ANCHOR, 74.5 nM; in the data set on hCMV-ANCHOR, 11.6 nM; with RSV, 162 nM. Besides, the Selectivity index in the data set with VACV-ANCHOR was 1,323; with Myxomavirus T1-ANCHOR it was 45; with hCMV-ANCHOR, 4,310; with RSV, 309. Besides, the CC50 at 72 h in data set [2] was more than 50000 nM; in [5], 3350 nM; in data set [3] it was more than 50000 nM; in [4], more than 50000 nM.
